Measured values taken from PubChem BioAssay (NCI).
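These data come from cells grown in 96-well plates and exposed to compound for 48 hours at five concentrations. GI50: concentration for 50% inhibition of growth. The concentration for full growth arrest is given as TGI.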

Columns and labels:
Assay in all cases: NCI anticancer screen, dose series, 48 h; in the data active = GI50 below about 0.43 µM; inactive = the rest
MALME-3M melanoma = tested on: MALME-3M melanoma
TK-10 renal = tested on: TK-10 renal
HOP-92 NSCLC = tested on: HOP-92 NSCLC
HT29 colon = tested on: HT29 colon
NCI/ADR-RES ovarian = tested on: NCI/ADR-RES ovarian
DU-145 prostate = tested on: DU-145 prostate
U251 CNS = tested on: U251 CNS
CAKI-1 renal = tested on: CAKI-1 renal
SK-OV-3 ovarian = tested on: SK-OV-3 ovarian
HOP-62 NSCLC = tested on: HOP-62 NSCLC
NCI-H522 lung = tested on: NCI-H522 lung
A549 NSCLC = tested on: A549 NSCLC
OVCAR-3 ovarian = tested on: OVCAR-3 ovarian
786-0 renal = tested on: 786-0 renal
MOLT-4 leukemia = tested on: MOLT-4 leukemia
UO-31 renal = tested on: UO-31 renal
OVCAR-4 ovarian = tested on: OVCAR-4 ovarian
M14 melanoma = tested on: M14 melanoma
RPMI-8226 leukemia = tested on: RPMI-8226 leukemia
LOX IMVI melanoma = tested on: LOX IMVI melanoma
HS 578T breast = tested on: HS 578T breast
UACC-257 melanoma = tested on: UACC-257 melanoma
SF-268 CNS = tested on: SF-268 CNS
A498 renal = tested on: A498 renal
T-47D breast = tested on: T-47D breast
SK-MEL-5 melanoma = tested on: SK-MEL-5 melanoma
MDA-MB-231 breast = tested on: MDA-MB-231 breast
SNB-19 CNS = tested on: SNB-19 CNS
MCF7 breast = tested on: MCF7 breast
RXF 393 renal = tested on: RXF 393 renal
NCI-H460 lung = tested on: NCI-H460 lung
SNB-75 CNS = tested on: SNB-75 CNS
HL-60(TB) leukemia = tested on: HL-60(TB) leukemia
HCC-2998 colon = tested on: HCC-2998 colon
BT-549 breast = tested on: BT-549 breast
OVCAR-8 ovarian = tested on: OVCAR-8 ovarian
PC-3 prostate = tested on: PC-3 prostate
CCRF-CEM leukemia = tested on: CCRF-CEM leukemia
SK-MEL-2 melanoma = tested on: SK-MEL-2 melanoma
IGROV1 ovarian = tested on: IGROV1 ovarian
KM12 colon = tested on: KM12 colon
K-562 leukemia = tested on: K-562 leukemia
OVCAR-5 ovarian = tested on: OVCAR-5 ovarian
HCT-116 colon = tested on: HCT-116 colon
COLO 205 colon = tested on: COLO 205 colon
SK-MEL-28 melanoma = tested on: SK-MEL-28 melanoma
NCI-H226 lung = tested on: NCI-H226 lung
SR leukemia = tested on: SR leukemia
SN12C renal = tested on: SN12C renal
MDA-MB-435 = tested on: MDA-MB-435
HCT-15 colon = tested on: HCT-15 colon
SF-295 CNS = tested on: SF-295 CNS
NCI-H23 lung = tested on: NCI-H23 lung
EKVX NSCLC = tested on: EKVX NSCLC
UACC-62 melanoma = tested on: UACC-62 melanoma
ACHN renal = tested on: ACHN renal
SF-539 CNS = tested on: SF-539 CNS
SW-620 colon = tested on: SW-620 colon

COc1cc2c(O[C@@H]3OC[C@H](OC(C)=O)[C@H](OC(C)=O)[C@H]3O)c3c(c(-c4ccc5c(c4)OCO5)c2cc1OC)C(=O)OC3
> 5340 nM: TGI (MALME-3M melanoma)
> 7810 nM: TGI (786-0 renal)
> 7760 nM: TGI (BT-549 breast)
1400 nM: TGI (HOP-92 NSCLC)
1170 nM: TGI (UACC-257 melanoma)
6910 nM: TGI (SK-MEL-2 melanoma)
90.8 nM: TGI (LOX IMVI melanoma)
> 5890 nM: TGI (SNB-75 CNS)
2870 nM: TGI (SK-MEL-28 melanoma)
inactive: GI50 (MALME-3M melanoma) 565 nM | GI50 (NCI/ADR-RES ovarian) 1830 nM | GI50 (DU-145 prostate) 754 nM | GI50 (U251 CNS) 1160 nM | GI50 (HOP-62 NSCLC) 797 nM | GI50 (A549 NSCLC) 613 nM | GI50 (OVCAR-3 ovarian) > 5480 nM | GI50 (786-0 renal) 2030 nM | GI50 (MOLT-4 leukemia) 437 nM | GI50 (UO-31 renal) 1780 nM | GI50 (OVCAR-4 ovarian) > 3120 nM | GI50 (HS 578T breast) 3990 nM | GI50 (SF-268 CNS) 1470 nM | GI50 (A498 renal) 1130 nM | GI50 (SNB-19 CNS) > 9570 nM | GI50 (MCF7 breast) 684 nM | GI50 (HL-60(TB) leukemia) 433 nM | GI50 (HCC-2998 colon) 1560 nM | GI50 (PC-3 prostate) 870 nM | GI50 (CCRF-CEM leukemia) 498 nM | GI50 (SK-MEL-2 melanoma) 1050 nM | GI50 (KM12 colon) 471 nM | GI50 (K-562 leukemia) 436 nM | GI50 (HCT-15 colon) 725 nM | GI50 (NCI-H23 lung) 3240 nM | GI50 (EKVX NSCLC) 859 nM | GI50 (ACHN renal) 566 nM | GI50 (SF-539 CNS) 437 nM | GI50 (SW-620 colon) 491 nM
> 10000 nM: TGI (TK-10 renal) | TGI (HT29 colon) | TGI (NCI/ADR-RES ovarian) | TGI (DU-145 prostate) | TGI (U251 CNS) | TGI (CAKI-1 renal) | TGI (SK-OV-3 ovarian) | TGI (HOP-62 NSCLC) | TGI (NCI-H522 lung) | TGI (A549 NSCLC) | TGI (OVCAR-3 ovarian) | TGI (MOLT-4 leukemia) | TGI (OVCAR-4 ovarian) | TGI (HS 578T breast) | TGI (SF-268 CNS) | TGI (A498 renal) | TGI (T-47D breast) | TGI (SNB-19 CNS) | TGI (MCF7 breast) | TGI (RXF 393 renal) | TGI (NCI-H460 lung) | TGI (HL-60(TB) leukemia) | TGI (HCC-2998 colon) | TGI (OVCAR-8 ovarian) | TGI (PC-3 prostate) | TGI (CCRF-CEM leukemia) | TGI (IGROV1 ovarian) | TGI (KM12 colon) | TGI (K-562 leukemia) | TGI (OVCAR-5 ovarian) | TGI (HCT-116 colon) | TGI (COLO 205 colon) | TGI (NCI-H226 lung) | TGI (SR leukemia) | TGI (SN12C renal) | TGI (HCT-15 colon) | TGI (NCI-H23 lung) | TGI (EKVX NSCLC) | TGI (ACHN renal) | TGI (SF-539 CNS) | TGI (SW-620 colon)
3060 nM: TGI (MDA-MB-435)
923 nM: TGI (SF-295 CNS)
> 3750 nM: TGI (RPMI-8226 leukemia)
6740 nM: TGI (UO-31 renal)
649 nM: TGI (M14 melanoma)
1800 nM: TGI (MDA-MB-231 breast)
517 nM: TGI (UACC-62 melanoma)
active: GI50 (HOP-92 NSCLC) 178 nM | GI50 (HT29 colon) 165 nM | GI50 (CAKI-1 renal) 93.1 nM | GI50 (NCI-H522 lung) 252 nM | GI50 (M14 melanoma) 192 nM | GI50 (RPMI-8226 leukemia) 64.7 nM | GI50 (LOX IMVI melanoma) 23.3 nM | GI50 (UACC-257 melanoma) 276 nM | GI50 (T-47D breast) 115 nM | GI50 (SK-MEL-5 melanoma) 57.2 nM | GI50 (MDA-MB-231 breast) 75.4 nM | GI50 (RXF 393 renal) 267 nM | GI50 (NCI-H460 lung) 255 nM | GI50 (SNB-75 CNS) 274 nM | GI50 (BT-549 breast) 72.2 nM | GI50 (OVCAR-8 ovarian) 189 nM | GI50 (IGROV1 ovarian) 400 nM | GI50 (OVCAR-5 ovarian) 112 nM | GI50 (HCT-116 colon) 167 nM | GI50 (COLO 205 colon) 76.4 nM | GI50 (SK-MEL-28 melanoma) 264 nM | GI50 (NCI-H226 lung) 253 nM | GI50 (SR leukemia) 59 nM | GI50 (SN12C renal) 284 nM | GI50 (MDA-MB-435) 359 nM | GI50 (SF-295 CNS) 270 nM | GI50 (UACC-62 melanoma) 155 nM
